The target in experiment [1] is T1, Patr-A*03∶01 (Pan troglodytes, UniProt P13748).
T1 construct: expressed in transfected cells; host or cells: K562 or 721.221 cells
Description: cell-based peptide-binding-competition-assay, Patr-A*03∶01. On the set-up: species or system chimpanzee (Pan troglodytes). Conditions: competition with 500nM biotinylated indicator peptide […], overnight, europium-streptavidin DELFIA. Here is the method:
A cell-based peptide-binding-competition-assay was performed as previously described. In this assay, peptides are tested for binding to transfected cell lines expressing chimpanzee class-I molecules, while competing with a biotin-labeled reference-peptide. […] After overnight incubation, excess peptide was removed by washing and indicator-peptide bound to cells was quantified using the DELFIA-system and the Victor3 1420 multilabel counter (Perkin Elmer). The binding affinity of the indicator peptide was verified using its unlabeled peptide as competitor, this is referred to as standardized competitor [15].

Another experiment deals with expanded CD8 T-cells. Description: intracellular cytokine staining of expanded CD8 T-cells after peptide restimulation. The experiment is classed as cell-based, chimpanzee (Pan troglodytes). Conditions: two weeks after the final vaccine boost. The source says:
For stimulation and expansion of HCV-specific cells, two different NS3-peptide-pools were compiled: NS3vaccine was a mixture of 15-mer peptides with 11 amino acids overlap, covering the NS3-sequence of the vaccine constructs; NS3challenge was a mixture of 15-mer peptides with 11 amino acids overlap covering the NS3-variants observed in the inoculum. Identification of NS3 epitopes within NS3 was first performed via the matrix setup and confirmed in a second assay using individual peptides (peptide-sequences are listed in Table S1).
Cells isolated before infection were expanded and tested for response against peptide-pool NS3vaccine, whereas cells isolated after challenge were tested against peptide-pool NS3challenge. PBMCs isolated at the day of challenge were stimulated in two separate cultures with either NS3vaccine or NS3challenge. […]
The cytokine production profile of HCV-specific T-cell lines was determined by intracellular cytokine staining (ICS) after restimulation with NS3-peptides. […] Cell staining was analyzed on a FACSAria (BD Bioscience) and DIVA software Version 6.1.1.

Experiment [2] addresses T1, Patr-A*03∶01. Also noted: method as in PMID 20696916. Conditions: unlabeled indicator peptide as competitor; ref [15]; read-out: IC50 of standardized competitor; cited from earlier work.
[3] abbreviates: MHC class I transfected K562 or 721.221 cells, regression curves of three independent experiments.

Where two headings read alike, the source gives them in different places. Where no end group is shown, it is not given here.

Turning to `CC(C)C[C@H](NC(=O)[C@@H](NC(=O)[C@H](C)NC(=O)[C@H](C)N)[C@@H](C)O)C(=O)NCC(=O)N[C@@H](Cc1ccccc1)C(=O)NCC(=O)N[C@@H](C)C(=O)N[C@@H](Cc1ccc(O)cc1)C(=O)O`, the IC50 at Patr-A*03∶01 [1] (setting [3]) was found to be 200 nM.

The compound `CSCC[C@H](NC(=O)[C@H](Cc1ccc(O)cc1)NC(=O)[C@H](C)NC(=O)CNC(=O)[C@H](Cc1ccccc1)NC(=O)CNC(=O)[C@@H](N)CC(C)C)C(=O)N[C@@H](CO)C(=O)N[C@@H](CCCCN)C(=O)O` returned a concentration for half-maximal inhibition (IC50) on Patr-A*03∶01 [1] (setting [3]) of 30 nM.

For “IRTGVRTITTGGPIT [p64, 15-mer NS3 peptide]”, the “cytokine induction in expanded CD8 T-cells” value in the experiment with expanded CD8 T-cells (Vac1) was “did not induce cytokine production”; in the experiment with expanded CD8 T-cells (Vac2) it was “moderate dual IFNγ/IL-2 and IFNγ/TNFa cytokine production”.

Turning to KGGLRPRAG [reference compound], the IC50 on Patr-A*03∶01 [1] (transfected K562 or 721.221 cells, two individual experiments) was determined as 8200 nM.

Compound VAATLGFGAYMSKAH [p59] registered a half-maximal inhibitory concentration (IC50) at Patr-A*03∶01 [1] (setting [3]) of 60 nM.

In the case of “standardized competitor peptide of Patr-A*03∶01: unlabeled peptide of the A*03∶01 indicator peptide, used as competitor (ATALECVYK; Unlabeled: no biotin on Cys6, which carries biotin in the indicator form)”, the IC50 in the experiment with Patr-A*03∶01 [2] is 1500 nM.

Broadly, the IC50 is the point on the concentration scale where inhibition reaches its midpoint.

Source of the values: publication PMC3989318, “Strong Vaccine-Induced CD8 T-Cell Responses Have Cytolytic Function in a Chimpanzee Clearing HCV Infection” (PLoS ONE, 2014).
